Measured values as given in patent US6750228B1, “Aromatic sulfone hydroxamic acid metalloprotease inhibitor” (priority 1997, dated 2004).
pIC50: −log10 of the molar value. Like-named read-outs stand apart in the source and are kept apart here.

What was measured:
Assay in all cases: biochemical
MMP-13 = biological target: T1, MMP-13 (Homo sapiens, UniProt P45452); settings: read-out: MMP-13 IC50
T1 construct: made in house; host or cells: baculovirus / insect cells
Procedure: (§1) The compounds prepared in the manner described in the Examples above were assayed for activity by an in vitro assay. […] Briefly, 4-aminophenylmercuric acetate (APMA) or trypsin-activated MMPs were incubated with various concentrations of the inhibitor compound at room temperature for 5 minutes.
(§2) The expressed enzyme was purified first over a heparin agarose column and then over a chelating zinc chloride column. The proenzyme was activated by APMA for use in the assay.
(§3) MMP-1 expressed in transfected HT-1080 cells was provided by Dr. Harold Welgus of Washington University, St. Louis, Mo. The enzyme was also activated using APMA and was then purified over a hydroxamic acid column. Dr. Welgus also provided transfected HT-1080 cells that expressed MMP-9. Transfected cells that expressed MMP-2 were provided by Dr. Gregory Goldberg, also of Washington University. Studies with MMP-7 were carried out at pH 7.5 in the presence of 0.02% 2-mercaptoethanol using conditions otherwise similar to those used for the other enzymes. The enzyme was obtaind from a hMMP-7-expressing E. coli clone that was a gift of Dr. Steven Shapiro of Washington University, St. Louis, Mo. Further specifics for preparation and use of these enzymes can be found in the scientific literature describing these enzymes. See, for example, Enzyme Nomenclature, Academic Press, San Diego, Calif. […] The enzyme substrate is a methoxycoumarin-containing polypeptide having the following sequence:
(§4) MCA-ProLeuGlyLeuDpaAlaArgNH2, wherein MCA is methoxycoumarin and Dpa is 3-(2,4-dinitrophenyl)-L-2,3-diaminopropionyl alanine.
(§5) The buffer used for assays contained 100 mM Tris-HCl, 100 mM NaCl, 10 mM CaCl2 and 0.05 percent polyethyleneglycol (23) lauryl ether at a pH value of 7.5. Assays were carried out at room temperature, and dimethyl sulfoxide (DMSO) at a final concentration of 1 percent was used to dissolve inhibitor compound.
(§6) The assayed inhibitor compound in DMSO/buffer solution was compared to an equal amount of DMSO/buffer with no inhibitor as control using Microfluor White Plates (Dynatech). The inhibitor or control solution was maintained in the plate for 10 minutes and the substrate was added to provide a final concentration of 4 μM.
(§7) Inhibition was measured as a reduction in fluorescent intensity as a function of inhibitor concentration, using a Perkin Elmer L550 plate reader. The IC50 values were calculated from those values. The results are set forth in the Inhibition Table A, below, reported in terms of IC50 to three significant figures, where appropriate.

MMP-2 = biological target: T2, MMP-2 (Homo sapiens, UniProt P08253); settings: for pIC50: read-out: MMP-2 IC50; for IC50: MMP-2 IC50 (nM)
T2 construct: made in house; provided by Dr. Gregory Goldberg, Washington University
T2 sequence (P08253 110-660): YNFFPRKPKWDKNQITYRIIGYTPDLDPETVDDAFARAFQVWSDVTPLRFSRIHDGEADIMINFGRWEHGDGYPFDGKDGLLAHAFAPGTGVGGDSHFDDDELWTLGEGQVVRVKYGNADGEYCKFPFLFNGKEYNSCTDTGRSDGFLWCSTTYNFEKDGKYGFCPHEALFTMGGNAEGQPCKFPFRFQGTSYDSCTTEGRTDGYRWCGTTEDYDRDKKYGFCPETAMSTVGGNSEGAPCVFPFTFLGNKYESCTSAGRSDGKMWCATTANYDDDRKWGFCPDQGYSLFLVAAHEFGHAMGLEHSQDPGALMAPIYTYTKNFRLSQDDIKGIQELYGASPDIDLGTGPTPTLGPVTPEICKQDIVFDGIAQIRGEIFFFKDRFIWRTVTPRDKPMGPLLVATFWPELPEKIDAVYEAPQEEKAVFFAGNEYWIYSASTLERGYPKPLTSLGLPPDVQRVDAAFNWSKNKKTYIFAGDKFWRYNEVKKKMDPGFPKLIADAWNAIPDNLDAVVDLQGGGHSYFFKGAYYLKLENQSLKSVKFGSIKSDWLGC
Procedure: as §1, §2, §3, §4, §5, §6, §7

MMP-1 = biological target: T3, MMP-1 (Homo sapiens, UniProt P03956); settings: read-out: MMP-1 IC50
T3 construct: made in house; host or cells: transfected HT-1080 cells (provided by Dr. Harold Welgus, Washington University)
T3 sequence (P03956 100-469): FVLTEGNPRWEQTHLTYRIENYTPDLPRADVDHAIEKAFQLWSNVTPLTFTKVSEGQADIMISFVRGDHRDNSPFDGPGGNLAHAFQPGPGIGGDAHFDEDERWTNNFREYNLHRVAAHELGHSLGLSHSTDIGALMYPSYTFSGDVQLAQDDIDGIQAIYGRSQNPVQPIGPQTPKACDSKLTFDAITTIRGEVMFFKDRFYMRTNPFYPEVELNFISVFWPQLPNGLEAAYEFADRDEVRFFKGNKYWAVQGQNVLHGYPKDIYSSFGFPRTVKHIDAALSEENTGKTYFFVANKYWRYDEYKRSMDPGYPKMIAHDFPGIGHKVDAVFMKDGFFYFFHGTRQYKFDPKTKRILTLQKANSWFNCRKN
Procedure: as §1, §2, §3, §4, §5, §6, §7

[1] = recombinant human MMP-13, MCA peptide substrate 4 μM, pH 7.5, room temperature
[2] = recombinant human MMP-2, MCA peptide substrate 4 μM, pH 7.5, room temperature
[3] = recombinant human MMP-1, MCA peptide substrate 4 μM, pH 7.5, room temperature

pIC50 (MMP-13; [1])	pIC50 (MMP-2; [2])	pIC50 (MMP-1; [3])	Compound	pIC50 (MMP-13)	IC50 (MMP-2) [nM]	pIC50 (MMP-1)	pIC50 (MMP-2)
6.43	5.15	< 5.00	CN(C)CCN(C)C(=O)C1CCN(c2ccc(S(=O)(=O)C3(C(=O)NO)CCOCC3)cc2)CC1 [Example 51]				
7.05	5.72	< 5.00	CCN(Cc1ccncc1)C(=O)C1CCN(c2ccc(S(=O)(=O)C3(C(=O)NO)CCOCC3)cc2)CC1 [Example 52]				
7.54	5.85	< 5.00	O=C(NCC1CC1)C1CCN(c2ccc(S(=O)(=O)C3(C(=O)NO)CCOCC3)cc2)CC1 [Example 53]				
7.40	5.24	< 5.00	CC1CC(C)CN(C(=O)C2CCN(c3ccc(S(=O)(=O)C4(C(=O)NO)CCOCC4)cc3)CC2)C1 (stereo not drawn) [Example 54]				
7.10	5.57	< 5.00	CCCNC(=O)C1CCN(c2ccc(S(=O)(=O)C3(C(=O)NO)CCOCC3)cc2)CC1 [Example 57]				
7.66	5.40	< 5.00	CC(C)CN(C)C(=O)C1CCN(c2ccc(S(=O)(=O)C3(C(=O)NO)CCOCC3)cc2)CC1 [Example 58]				
7.86	5.43	< 5.00	CN(C(=O)C1CCN(c2ccc(S(=O)(=O)C3(C(=O)NO)CCOCC3)cc2)CC1)c1ccccc1 [Example 60]				
7.85	6.16	< 5.00	O=C(Nc1ccncc1)C1CCN(c2ccc(S(=O)(=O)C3(C(=O)NO)CCOCC3)cc2)CC1 [Example 62]				
7.70	5.54	< 5.00	O=C(Nc1ccccc1OC(F)(F)F)C1CCN(c2ccc(S(=O)(=O)C3(C(=O)NO)CCOCC3)cc2)CC1 [Example 63]				
7.89	5.74	< 5.00	O=C(Nc1cccc(OC(F)(F)F)c1)C1CCN(c2ccc(S(=O)(=O)C3(C(=O)NO)CCOCC3)cc2)CC1 [Example 68]				
7.97	6.15	< 5.00	O=C(Nc1cccc(Cl)c1)C1CCN(c2ccc(S(=O)(=O)C3(C(=O)NO)CCOCC3)cc2)CC1 [Example 70]				
8.11	6.57	< 5.00	O=C(Nc1cccc(F)c1)C1CCN(c2ccc(S(=O)(=O)C3(C(=O)NO)CCOCC3)cc2)CC1 [Example 71]				
7.89	6.10	< 5.00	COc1cccc(NC(=O)C2CCN(c3ccc(S(=O)(=O)C4(C(=O)NO)CCOCC4)cc3)CC2)c1 [Example 72]				
7.81	5.70	< 5.00	O=C(Nc1ccc(OC(F)(F)F)cc1)C1CCN(c2ccc(S(=O)(=O)C3(C(=O)NO)CCOCC3)cc2)CC1 [Example 73]				
8.05	7.10	< 5.00	O=C(Nc1ccncn1)C1CCN(c2ccc(S(=O)(=O)C3(C(=O)NO)CCOCC3)cc2)CC1 [Example 74]				
7.94	6.30	< 5.00	O=C(Nc1ccc(F)cc1)C1CCN(c2ccc(S(=O)(=O)C3(C(=O)NO)CCOCC3)cc2)CC1 [Example 75]				
8.05	6.60	< 5.00	COc1ccc(NC(=O)C2CCN(c3ccc(S(=O)(=O)C4(C(=O)NO)CCOCC4)cc3)CC2)cc1 [Example 76]				

pIC50 (MMP-13; [1])	pIC50 (MMP-2; [2])	pIC50 (MMP-1; [3])	Compound	pIC50 (MMP-13)	IC50 (MMP-2) [nM]	pIC50 (MMP-1)	pIC50 (MMP-2)
7.12	5.47	< 5.00	CN(C)c1cccc(NC(=O)C2CCN(c3ccc(S(=O)(=O)C4(C(=O)NO)CCOCC4)cc3)CC2)c1 [Example 77]				
7.93	6.14	< 5.00	CN(C)c1ccc(NC(=O)C2CCN(c3ccc(S(=O)(=O)C4(C(=O)NO)CCOCC4)cc3)CC2)cc1 [Example 78]				
			COc1ccccc1C1CCN(c2ccc(S(=O)(=O)C3(C(=O)NO)CCOCC3)cc2)CC1 [Example 79]	7.70	2000	< 5.00	
7.22	6.80	< 5.00	O=C(NO)C1(S(=O)(=O)c2ccc(N3CCCC3)cc2)CCOCC1 [Example 81]				
8.40	7.81	< 5.00	O=C(NO)C1(S(=O)(=O)c2ccc(N3CCN(c4ccc(F)cc4F)CC3)cc2)CCOCC1 [Example 87]				
8.05	7.40	< 5.00	O=C(NO)C1(S(=O)(=O)c2ccc(N3CCN(c4ccccc4Cl)CC3)cc2)CCOCC1 [Example 88]				
9.52	> 10.00	< 5.00	O=C(c1ccccc1)N1CCC(C(=O)NO)(S(=O)(=O)c2ccc(Oc3ccc(OC(F)(F)F)cc3)cc2)CC1 [Example 91]				
9.10	10.00	< 5.00	O=C(c1ccccc1)N1CCC(C(=O)NO)(S(=O)(=O)c2ccc(Oc3ccc(C(F)(F)F)cc3)cc2)CC1 [Example 92]				
7.94	9.10	< 5.00	O=C(c1ccc(OC(F)(F)F)cc1)N1CCC(C(=O)NO)(S(=O)(=O)c2ccc(Oc3ccc(C(F)(F)F)cc3)cc2)CC1 [Example 140]				
7.70	8.05	< 5.00	O=C(Nc1ccc(C(F)(F)F)cc1)N1CCC(C(=O)NO)(S(=O)(=O)c2ccc(Oc3ccc(C(F)(F)F)cc3)cc2)CC1 [Example 141]				
7.66	7.84	< 5.00	O=C(NO)C1(S(=O)(=O)c2ccc(Oc3ccc(C(F)(F)F)cc3)cc2)CCN(S(=O)(=O)c2ccc(C(F)(F)F)cc2)CC1 [Example 143]				
			COc1ccc(Oc2ccc(S(=O)(=O)C3(C(=O)NO)CCSCC3)cc2)cc1 [Example 146]	9.70		5.52	9.52
9.40	9.70	5.11	O=C(NO)C1(S(=O)(=O)c2ccc(Oc3ccc(OC(F)(F)F)cc3)cc2)CCSCC1 [Example 147]				
8.60	8.43	< 5.00	CC(C)c1ccc(Oc2ccc(S(=O)(=O)C3(C(=O)NO)CCSCC3)cc2)cc1 [Example 148]				
7.80	7.86	6.32	O=C(NO)C1(S(=O)(=O)c2ccc(Oc3cccnc3)cc2)CCSCC1 [Example 149]				
6.57	6.54	< 5.00	O=C(NO)C1(S(=O)(=O)c2ccc(Oc3ccncc3)cc2)CCSCC1 [Example 151]				

Compound	pIC50 (MMP-13; [1])	pIC50 (MMP-2; [2])	pIC50 (MMP-1; [3])	pIC50 (MMP-13)	IC50 (MMP-2) [nM]	pIC50 (MMP-1)	pIC50 (MMP-2)
COc1ccc(C(=O)C2CCN(c3ccc(S(=O)(=O)C4(C(=O)NO)CCOCC4)cc3)CC2)cc1 [Example 80]	8.39	6.25	< 5.00				
O=C(NO)C1(S(=O)(=O)c2ccc(N3CCN(c4ccccc4F)CC3)cc2)CCOCC1 [Example 83]	8.57		5.51		21.1		
